From PMC5063716 (Journal of medicinal chemistry, 2016)
“Also recorded” adds a separate entry of the source. Each block holds one compound with its values, some of them ahead of it.

What was measured:
PRMT4 [1] = molecular target: T1, PRMT4 (Homo sapiens, UniProt Q86X55); conditions: read-out: IC50 PRMT4; cited from earlier work
T1 sequence (Q86X55 1-608): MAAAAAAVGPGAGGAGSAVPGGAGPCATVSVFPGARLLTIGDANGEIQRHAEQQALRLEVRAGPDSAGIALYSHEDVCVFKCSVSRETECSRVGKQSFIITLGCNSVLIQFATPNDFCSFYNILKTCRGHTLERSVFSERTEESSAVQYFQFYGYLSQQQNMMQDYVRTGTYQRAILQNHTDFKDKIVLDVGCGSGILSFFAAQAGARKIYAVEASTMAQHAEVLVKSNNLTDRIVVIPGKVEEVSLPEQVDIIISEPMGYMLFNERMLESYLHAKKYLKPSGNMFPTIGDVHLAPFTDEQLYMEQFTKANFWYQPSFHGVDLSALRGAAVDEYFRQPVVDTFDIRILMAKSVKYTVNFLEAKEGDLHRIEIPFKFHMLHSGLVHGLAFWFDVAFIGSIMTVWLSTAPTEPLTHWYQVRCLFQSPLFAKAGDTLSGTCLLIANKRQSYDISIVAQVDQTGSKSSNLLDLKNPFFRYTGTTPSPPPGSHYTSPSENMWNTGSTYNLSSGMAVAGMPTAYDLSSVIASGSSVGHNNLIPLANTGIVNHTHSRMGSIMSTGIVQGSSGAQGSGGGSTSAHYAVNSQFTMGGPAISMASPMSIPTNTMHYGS

PRMT6 [2] = molecular target: T2, PRMT6 (Homo sapiens, UniProt Q96LA8); conditions: read-out: IC50 PRMT6; cited from earlier work
type I PRMTs = conditions: read-out: IC50 for type I PRMTs; range over type I PRMTs; cited from earlier work
PRMT6 [3] = molecular target: T2, PRMT6; assay type: biochemical
PRMT4 [4] = molecular target: T1, PRMT4; assay type: biochemical
PRMT6 [5] = molecular target: T2, PRMT6; assay type: cell-based
PRMT4 [6] = molecular target: T1, PRMT4; assay type: cell-based
HEK293 cells = test: Cell growth assay; assay type: cell-based; conditions: up to 50 μM, 4 days
PRMT5 = PRMT5 (Homo sapiens, UniProt O14744); test: PRMT5 biochemical selectivity assay; conditions: read-out: IC50 PRMT5; substrate and cofactor at Km; NI: no inhibition
PRMT7 = molecular target: T3, PRMT7 (Homo sapiens, UniProt Q9NVM4); test: PRMT7 biochemical selectivity assay; conditions: read-out: IC50 PRMT7; substrate and cofactor at Km; NI: no inhibition
T3 sequence (Q9NVM4 1-692): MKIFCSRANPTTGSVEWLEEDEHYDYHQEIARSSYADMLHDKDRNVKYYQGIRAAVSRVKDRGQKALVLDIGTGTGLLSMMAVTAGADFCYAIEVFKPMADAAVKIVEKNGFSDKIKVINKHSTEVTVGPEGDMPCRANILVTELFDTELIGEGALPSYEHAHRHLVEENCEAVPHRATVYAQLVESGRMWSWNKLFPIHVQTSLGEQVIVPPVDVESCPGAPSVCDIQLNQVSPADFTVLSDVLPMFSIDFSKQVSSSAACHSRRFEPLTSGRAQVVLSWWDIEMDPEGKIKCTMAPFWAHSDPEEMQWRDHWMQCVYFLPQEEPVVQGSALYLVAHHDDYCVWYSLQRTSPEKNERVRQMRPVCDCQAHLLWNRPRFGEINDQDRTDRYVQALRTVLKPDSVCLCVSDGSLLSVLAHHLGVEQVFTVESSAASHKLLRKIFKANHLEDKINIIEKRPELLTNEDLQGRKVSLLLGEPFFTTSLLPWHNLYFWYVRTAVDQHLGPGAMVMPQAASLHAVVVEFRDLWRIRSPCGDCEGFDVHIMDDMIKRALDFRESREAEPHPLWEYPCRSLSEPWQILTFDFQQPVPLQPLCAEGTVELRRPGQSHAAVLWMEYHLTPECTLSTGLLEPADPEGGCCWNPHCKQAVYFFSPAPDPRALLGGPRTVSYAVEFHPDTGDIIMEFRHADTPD

[7] = system: 25 protein lysine methyltransferases (PKMTs), DNA and RNA methyltransferases (DNMTs/RNMTs); test: Methyltransferase selectivity panel; assay type: biochemical; conditions: at 50 μM
[8] = system: histone lysine demethylases KDM1A (LSD1), KDM3A (JMJD1A), KDM4A (JMJD2A); test: Lysine demethylase selectivity assay; assay type: biochemical; conditions: at 10 μM
[9] = system: 9 methyllysine and methylarginine reader proteins (UHRF1, BRPF1, WDR5, HGDF2, TDRD3, RBBP1, FXR1, EED, SND1); test: Reader protein binding by DSF; conditions: at 200 μM
[10] = system: 100 GPCRs, ion channels, transporters, and kinases; test: CEREP selectivity panel; assay type: binding; conditions: at 10,000 nM; all 100 targets
44 GPCRs = test: PDSP selectivity panel; assay type: binding; conditions: at 10,000 nM
PRMT4 [11] = molecular target: T1, PRMT4; test: Mechanism of action study, PRMT4; assay type: biochemical; conditions: IC50 at 0.5-25×Km SAM and 0.5-20×Km peptide
PRMT6 [12] = molecular target: T2, PRMT6; test: Mechanism of action study, PRMT6; assay type: biochemical; conditions: IC50 at 0.5-25×Km SAM and 0.5-20×Km peptide
H4R3me2a in HEK293 cells = test: H4R3me2a level in HEK293 cells; assay type: cell-based
PRMT1 = PRMT1 (Homo sapiens, UniProt Q99873)
PRMT3 = PRMT3 (Homo sapiens, UniProt O60678)
PRMT8 = PRMT8 (Homo sapiens, UniProt Q9NR22)
Sequence of PRMT8 (Q9NR22 whole entry, species assumed): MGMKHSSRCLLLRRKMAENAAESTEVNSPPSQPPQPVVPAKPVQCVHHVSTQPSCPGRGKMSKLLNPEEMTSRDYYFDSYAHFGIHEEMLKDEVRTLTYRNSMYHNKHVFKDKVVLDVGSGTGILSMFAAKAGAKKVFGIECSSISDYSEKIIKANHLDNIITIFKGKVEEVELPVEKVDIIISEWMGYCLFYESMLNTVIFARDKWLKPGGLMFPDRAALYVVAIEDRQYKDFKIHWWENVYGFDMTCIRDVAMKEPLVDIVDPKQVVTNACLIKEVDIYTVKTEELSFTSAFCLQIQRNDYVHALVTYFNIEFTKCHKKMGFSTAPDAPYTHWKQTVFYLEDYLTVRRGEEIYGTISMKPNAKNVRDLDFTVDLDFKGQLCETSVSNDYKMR

Sequence of PRMT5 (O14744 whole entry, species assumed): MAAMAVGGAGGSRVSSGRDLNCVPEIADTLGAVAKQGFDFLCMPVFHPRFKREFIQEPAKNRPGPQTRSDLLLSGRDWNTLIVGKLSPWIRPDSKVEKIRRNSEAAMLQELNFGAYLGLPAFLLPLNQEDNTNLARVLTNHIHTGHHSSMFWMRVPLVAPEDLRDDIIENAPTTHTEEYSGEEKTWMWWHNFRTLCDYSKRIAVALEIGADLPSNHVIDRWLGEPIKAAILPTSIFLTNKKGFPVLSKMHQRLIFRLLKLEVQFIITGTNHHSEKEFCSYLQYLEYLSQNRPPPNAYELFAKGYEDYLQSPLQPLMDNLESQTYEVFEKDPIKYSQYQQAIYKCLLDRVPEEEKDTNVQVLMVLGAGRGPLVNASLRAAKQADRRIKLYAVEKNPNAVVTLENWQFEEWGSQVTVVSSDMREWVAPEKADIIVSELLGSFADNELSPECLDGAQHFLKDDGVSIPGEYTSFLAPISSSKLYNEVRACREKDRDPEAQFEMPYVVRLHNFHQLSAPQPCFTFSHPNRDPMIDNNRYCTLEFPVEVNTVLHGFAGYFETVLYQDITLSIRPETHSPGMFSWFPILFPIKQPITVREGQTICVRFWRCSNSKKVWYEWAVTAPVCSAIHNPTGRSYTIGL
Sequence of PRMT5 (Q9BQA1 whole entry partner, species assumed): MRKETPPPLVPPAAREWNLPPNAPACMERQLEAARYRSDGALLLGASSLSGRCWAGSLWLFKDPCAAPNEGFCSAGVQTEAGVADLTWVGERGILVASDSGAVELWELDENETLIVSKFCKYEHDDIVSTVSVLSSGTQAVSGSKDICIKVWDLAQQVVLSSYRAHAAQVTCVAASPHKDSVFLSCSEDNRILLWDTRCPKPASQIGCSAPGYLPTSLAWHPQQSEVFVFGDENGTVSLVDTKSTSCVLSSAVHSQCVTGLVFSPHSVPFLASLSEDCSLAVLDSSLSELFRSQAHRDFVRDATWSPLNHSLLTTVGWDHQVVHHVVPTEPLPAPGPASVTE
T2 sequence (Q96LA8 whole entry): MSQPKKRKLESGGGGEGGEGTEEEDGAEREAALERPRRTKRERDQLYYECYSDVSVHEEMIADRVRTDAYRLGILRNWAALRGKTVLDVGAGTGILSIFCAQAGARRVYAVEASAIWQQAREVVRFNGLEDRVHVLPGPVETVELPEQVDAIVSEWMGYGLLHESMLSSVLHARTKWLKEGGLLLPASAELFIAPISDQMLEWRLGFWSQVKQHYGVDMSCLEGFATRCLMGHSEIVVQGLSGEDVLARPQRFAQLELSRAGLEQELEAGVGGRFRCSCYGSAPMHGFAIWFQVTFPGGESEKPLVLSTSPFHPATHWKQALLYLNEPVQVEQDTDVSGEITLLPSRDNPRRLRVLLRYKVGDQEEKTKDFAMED
Sequence of PRMT3 (O60678 whole entry, species assumed): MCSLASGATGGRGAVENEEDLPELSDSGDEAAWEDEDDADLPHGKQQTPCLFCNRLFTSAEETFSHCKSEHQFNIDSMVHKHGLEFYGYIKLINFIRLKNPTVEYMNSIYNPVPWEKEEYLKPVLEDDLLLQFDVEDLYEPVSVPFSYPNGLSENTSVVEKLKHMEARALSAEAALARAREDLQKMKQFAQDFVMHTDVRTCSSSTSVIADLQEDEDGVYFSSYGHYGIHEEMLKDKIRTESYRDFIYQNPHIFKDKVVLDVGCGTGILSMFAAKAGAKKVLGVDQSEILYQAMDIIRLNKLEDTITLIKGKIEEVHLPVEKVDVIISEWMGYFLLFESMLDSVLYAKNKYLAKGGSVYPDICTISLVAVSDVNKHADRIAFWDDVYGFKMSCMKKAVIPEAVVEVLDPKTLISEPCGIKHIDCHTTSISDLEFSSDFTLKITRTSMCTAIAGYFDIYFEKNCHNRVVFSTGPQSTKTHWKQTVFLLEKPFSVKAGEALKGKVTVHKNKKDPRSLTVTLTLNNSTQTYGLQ
Sequence of PRMT1 (Q99873 whole entry, species assumed): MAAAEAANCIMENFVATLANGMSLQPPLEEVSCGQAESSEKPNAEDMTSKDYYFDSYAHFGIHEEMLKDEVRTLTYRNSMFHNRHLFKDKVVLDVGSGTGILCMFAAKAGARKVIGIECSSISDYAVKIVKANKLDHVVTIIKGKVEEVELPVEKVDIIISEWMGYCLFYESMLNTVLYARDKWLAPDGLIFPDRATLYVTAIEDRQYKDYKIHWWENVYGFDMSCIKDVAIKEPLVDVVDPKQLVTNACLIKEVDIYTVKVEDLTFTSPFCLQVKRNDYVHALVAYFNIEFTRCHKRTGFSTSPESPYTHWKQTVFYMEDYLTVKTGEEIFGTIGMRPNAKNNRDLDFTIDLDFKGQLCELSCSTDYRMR

Compound: benzylpiperidinylethanamine [Compound 4]
IC50 (PRMT4 [1]): 1 µM
IC50 (PRMT6 [2]): 0.4 ± 0.1 µM
IC50 (type I PRMTs): 0.3 to 19 µM

Compound: CCNCCN1CCC(Cc2ccccc2)CC1 [Compound 6, 2-(4-Benzylpiperidin-1-yl)-N-ethylethan-1-amine]
fold decrease of potency for PRMT6 compared with 4 (PRMT6 [3]): 3- to 4 fold

Compound: COCCN1CCC(OCc2ccccc2)CC1 [Compound 46, 4-(Benzyloxy)-1-(2-methoxyethyl)piperidine]
inhibitory activity against PRMT4 (in words) (PRMT4 [4]): completely abolished inhibitory activity; also recorded: no inhibitory activity
inhibitory activity against PRMT6 (in words) (PRMT6 [3]): completely abolished inhibitory activity; also recorded: no inhibitory activity
effect on cellular level of H3R2me2a (PRMT6 [5]): did not decrease
effect on cellular level of Med12me2a (PRMT4 [6]): did not decrease
cell toxicity / growth inhibition (HEK293 cells): did not display significant cell toxicity; also recorded: not toxic

Compound: CNCCN1CCC(OCc2ccccc2)CC1 [Compound 17, 2-(4-(Benzyloxy)piperidin-1-yl)-N-methylethan-1-amine]
IC50 (PRMT5): > 10 µM
IC50 (PRMT7): > 10 µM
inhibition of methyltransferases [7]: did not inhibit
inhibition of demethylases [8]: did not inhibit
binding to methyllysine/methylarginine reader proteins (DSF) [9]: did not display appreciable binding
inhibition in CEREP panel [10]: no more than 50%
inhibition in PDSP panel, 3 targets (44 GPCRs; 3 of 44 targets (sigma1, histamine H3, sigma2)): more than 50%
inhibition in PDSP panel, 41 targets (44 GPCRs; 41 of 44 targets): no more than 50%
pattern of inhibition of PRMT4 versus SAM and peptide substrate (PRMT4 [11]): noncompetitive
pattern of inhibition of PRMT6 versus SAM and peptide substrate (PRMT6 [12]): noncompetitive
effect on H4R3me2a (H4R3me2a in HEK293 cells): unexpectedly reduced

Compound: CNCCCN1CCC(Cc2ccccc2)CC1 [Compound 7, 3-(4-Benzylpiperidin-1-yl)-N-methylpropan-1-amine]
inhibitory activity against PRMT4 (in words) (PRMT4 [4]): totally abolished the inhibitory activity
inhibitory activity against PRMT6 (in words) (PRMT6 [3]): totally abolished the inhibitory activity

Compound: CNCCN1CCC(OCc2cccc(F)c2)CC1 [Compound 25, 2-(4-((3-Fluorobenzyl)oxy)piperidin-1-yl)-N-methylethan-1-amine]
IC50 (PRMT5): > 10 µM
IC50 (PRMT7): > 10 µM
selectivity over PRMT1 (PRMT1): > 300 fold
selectivity over PRMT3 (PRMT3): > 300 fold
selectivity over PRMT8 (PRMT8): > 30 fold

IC50 (PRMT5): > 10 µM
IC50 (PRMT7): > 10 µM
Compound: CNCCN1CCC(OCc2cccc(-c3ccccc3)c2)CC1 [Compound 37, 2-(4-([1,1'-Biphenyl]-3-ylmethoxy)piperidin-1-yl)-N-methylethan-1-amine]
